The text below walks through data of patent publication US12595230B2, “Substituted 6,7-dihydro-5H-benzo[7]annulene compounds and their derivatives, processes for their preparation and therapeutic uses thereof” (Sanofi, priority 2020, dated 2026).

SMILES strings stand for the structures.

The test addresses T1, ERα (Homo sapiens, UniProt P03372).
T1 construct: host or cells: MCF7
T1 sequence (P03372 1-595): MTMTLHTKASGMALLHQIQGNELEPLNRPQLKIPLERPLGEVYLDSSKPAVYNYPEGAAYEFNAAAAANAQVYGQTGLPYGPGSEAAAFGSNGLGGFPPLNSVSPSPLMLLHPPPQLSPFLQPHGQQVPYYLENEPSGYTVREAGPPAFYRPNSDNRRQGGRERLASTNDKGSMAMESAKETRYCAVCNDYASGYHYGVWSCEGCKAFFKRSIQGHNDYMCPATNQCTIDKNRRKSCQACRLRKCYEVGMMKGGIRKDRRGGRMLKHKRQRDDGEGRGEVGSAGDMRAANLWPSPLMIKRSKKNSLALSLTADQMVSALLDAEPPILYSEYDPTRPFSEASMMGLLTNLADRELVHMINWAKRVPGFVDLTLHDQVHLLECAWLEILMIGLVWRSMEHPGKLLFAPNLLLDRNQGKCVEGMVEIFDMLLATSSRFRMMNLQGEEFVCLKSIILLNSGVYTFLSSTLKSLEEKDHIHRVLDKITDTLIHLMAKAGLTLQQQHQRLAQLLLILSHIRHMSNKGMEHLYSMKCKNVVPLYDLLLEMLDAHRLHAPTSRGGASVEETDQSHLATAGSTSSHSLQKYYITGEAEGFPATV
Briefly: Estrogen receptor degradation activity: breast cancer cell ERα in cell western assay (MCF7 cells). The test is classed as cell-based. The conditions noted are these: for % Degradation At 0.3 μM: 4 hours, relative to fulvestrant 0.1 μM positive control; for DC50: 4 hours post compound addition, concentration which degrades 50% of the estrogen receptor, read-out: Degradation IC50. The method in brief:
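Compounds were applied to MCF7 cells in stripped-serum, phenol red-free medium for 4 h at final 0.3–0.0000018 μM, with fulvestrant (0.1 μM) as control. Value: IC50 (nM) for 50% ERα degradation.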

Consider `O=C(O)c1ccc2c(c1)CCCC(C1C[C@H]3CCC[C@H]3C1)=C2c1ccc(CC2CN(CCCF)C2)cc1` (single isomer, unassigned) [Example 336, 9-(4-((1-(3-fluoropropyl)azetidin-3-yl)methyl)phenyl)-8-(octahydropentalen-2-yl)-6,7-dihydro-5H-benzo[7]annulene-3-carboxylic acid], for which the “% Degradation At 0.3 μM” value was determined as 86% and the DC50 is 900 pM.
As to `O=C(O)c1ccc2c(c1)CCCC(c1ncc(Cl)cc1Cl)=C2c1ccc(CC2CN(CCCF)C2)cc1` [Example 234, 8-(3,5-dichloropyridin-2-yl)-9-(4-((1-(3-fluoropropyl)azetidin-3-yl)methyl)phenyl)-6,7-dihydro-5H-benzo[7]annulene-3-carboxylic acid], the “% Degradation At 0.3 μM” value came out at 84% and the DC50 worked out at 1300 pM.
Taken in the same sequence, the figures for `O=C(O)c1ccc2c(c1)CCCC(c1ccccc1C(F)(F)F)=C2c1ccc(CC2CN(CCCF)C2)cc1` [Example 23, 9-(4-((1-(3-fluoropropyl)azetidin-3-yl)methyl)phenyl)-8-(2-(trifluoromethyl)phenyl)-6,7-dihydro-5H-benzo[7]annulene-3-carboxylic acid] were 91% and 200 pM.
In the case of `Cc1c(C2=C(c3ccc(CC4CN(CCCF)C4)cc3)c3ccc(C(=O)O)cc3CCC2C)cccc1C(F)(F)F` (racemic) [Example 310, 9-(4-((1-(3-fluoropropyl)azetidin-3-yl)methyl)phenyl)-7-methyl-8-(2-methyl-3-(trifluoromethyl)phenyl)-6,7-dihydro-5H-benzo[7]annulene-3-carboxylic acid], the “% Degradation At 0.3 μM” value was found to be 85% and the DC50 came out at 400 pM.
On to `O=C(O)c1ccc2c(c1)CCCC(c1cccc(Cl)c1F)=C2c1ccc(CC2CN(CCCF)C2)cc1` [Example 32, 8-(3-chloro-2-fluorophenyl)-9-(4-((1-(3-fluoropropyl)azetidin-3-yl)methyl)phenyl)-6,7-dihydro-5H-benzo[7]annulene-3-carboxylic acid], for which the “% Degradation At 0.3 μM” value amounted to 94% and the DC50 stood at 600 pM.
Taken in the same sequence, the figures for `Cl.O=C(O)c1ccc2c(c1)OCCC(c1ccccc1Cl)=C2c1ccc(CC2CN(CCCF)C2)cc1` [Example 49, 4-(2-chlorophenyl)-5-(4-((1-(3-fluoropropyl)azetidin-3-yl)methyl)phenyl)-2,3-dihydrobenzo[b]oxepine-8-carboxylic acid] were 82% and 3400 pM.
Turning to `CC(C)CC1=C(c2ccc(CC3CN(CCCF)C3)cc2)c2ccc(C(=O)O)cc2CCC1` [Example 37, 9-(4-((1-(3-fluoropropyl)azetidin-3-yl)methyl)phenyl)-8-isobutyl-6,7-dihydro-5H-benzo[7]annulene-3-carboxylic acid], the “% Degradation At 0.3 μM” value was 87% and the DC50 was determined as 400 pM.
With `CCOC(c1ccc(C2=C(c3ccc(Cl)cc3Cl)CCCc3cc(C(=O)O)ccc32)cc1)C1CN(CCCF)C1` (single isomer, unassigned; isomer 2) [Example 230, 8-(2,4-dichlorophenyl)-9-(4-(ethoxy(1-(3-fluoropropyl)azetidin-3-yl)methyl)phenyl)-6,7-dihydro-5H-benzo[7]annulene-3-carboxylic Acid Isomer 2], the “% Degradation At 0.3 μM” value is 78% and the DC50 worked out at 700 pM.
With `Cc1c(F)ccc(C2=C(c3ccc(CC4CN(CCCF)C4)cc3)c3ccc(C(=O)O)cc3CCC2C)c1C` (racemic) [Example 309, 8-(4-fluoro-2,3-dimethylphenyl)-9-(4-((1-(3-fluoropropyl)azetidin-3-yl)methyl)phenyl)-7-methyl-6,7-dihydro-5H-benzo[7]annulene-3-carboxylic acid], the “% Degradation At 0.3 μM” value came out at 88% and the DC50 was 400 pM.
With `Cc1cc(C2=C(c3ccc(CC4CN(CCCF)C4)cc3)c3ccc(C(=O)O)cc3CCC2)cn(C)c1=O` [Example 209, 8-(1,5-dimethyl-6-oxo-1,6-dihydropyridin-3-yl)-9-(4-((1-(3-fluoropropyl)azetidin-3-yl)methyl)phenyl)-6,7-dihydro-5H-benzo[7]annulene-3-carboxylic acid], the “% Degradation At 0.3 μM” value is given as 100% and the DC50 amounted to 88700 pM.
For the compound `O=C(O)c1ccc2c(c1)CCCC(C1CC3CCC(C3)C1)=C2c1ccc(CC2CN(CCCF)C2)cc1` (stereo not shown) [Example 316, 8-(bicyclo[3.2.1]octan-3-yl)-9-(4-((1-(3-fluoropropyl)azetidin-3-yl)methyl)phenyl)-6,7-dihydro-5H-benzo[7]annulene-3-carboxylic acid], the “% Degradation At 0.3 μM” value is on record as 81% and the DC50 was determined as 1200 pM.
Taken in the same sequence, the figures for `Cc1cccc(C2=C(c3ccc(CC4CN(CCC(F)F)C4)cc3)c3ccc(C(=O)O)cc3CCC2)c1Cl` [Example 277, 8-(2-chloro-3-methylphenyl)-9-(4-((1-(3,3-difluoropropyl)azetidin-3-yl)methyl)phenyl)-6,7-dihydro-5H-benzo[7]annulene-3-carboxylic acid] were 82% and 300 pM.
For the compound `Cc1c(C2=C(c3ccc(CC4CN(CCC(F)F)C4)cc3)c3ccc(C(=O)O)cc3CCC2)ccc(F)c1F` [Example 275, 8-(3,4-difluoro-2-methylphenyl)-9-(4-((1-(3,3-difluoropropyl)azetidin-3-yl)methyl)phenyl)-6,7-dihydro-5H-benzo[7]annulene-3-carboxylic acid], the “% Degradation At 0.3 μM” value was determined as 89% and the DC50 was 400 pM.
As to `O=C(O)c1ccc2c(c1)CCCC(C1CC3(C1)CC(F)(F)C3)=C2c1ccc(CC2CN(CCCF)C2)cc1` [Example 51, 8-(6,6-difluorospiro[3.3]heptan-2-yl)-9-(4-((1-(3-fluoropropyl)azetidin-3-yl)methyl)phenyl)-6,7-dihydro-5H-benzo[7]annulene-3-carboxylic acid], the “% Degradation At 0.3 μM” value turned out to be 89% and the DC50 was found to be 700 pM.
`O=C(O)c1ccc2c(c1)CCCC(c1c(Cl)cccc1C(F)(F)F)=C2c1ccc(CC2CN(CCCF)C2)cc1` [Example 34, 8-(2-chloro-6-(trifluoromethyl)phenyl)-9-(4-((1-(3-fluoropropyl)azetidin-3-yl)methyl)phenyl)-6,7-dihydro-5H-benzo[7]annulene-3-carboxylic acid]: the “% Degradation At 0.3 μM” value worked out at 79% and the DC50 is 200 pM.
Taken in the same sequence, the figures for `Cc1ccc(C2=C(c3ccc(CC4CN(CCCF)C4)cc3)c3ccc(C(=O)O)cc3CCC2)c(Cl)c1.Cl` [Example 7, 8-(2-chloro-4-methylphenyl)-9-(4-((1-(3-fluoropropyl)azetidin-3-yl)methyl)phenyl)-6,7-dihydro-5H-benzo[7]annulene-3-carboxylic acid] were 90% and 500 pM.
On to `O=C(O)c1ccc2c(c1)CCCC(c1ccc(Cl)cc1Cl)=C2c1ccc(C(O)C2CN(CCCF)C2)cc1` (single isomer, unassigned) [Example 41, 8-(2,4-dichlorophenyl)-9-(4-((1-(3-fluoropropyl)azetidin-3-yl)(hydroxy)methyl)phenyl)-6,7-dihydro-5H-benzo[7]annulene-3-carboxylic acid], for which the “% Degradation At 0.3 μM” value is recorded as 95% and the DC50 is 1600 pM.
